In patent publication EP2380575B1, “Eslicarbazepine acetate and use” (Bial-Portela & CA, S.A., priority 2005, dated 2006):
Where two headings read alike, the source gives them in different places.

Experiments:
clinical = conditions: both, human, plasma, po, 900 mg
[1] = for share of total systemic drug exposure (as assessed by AUC0-24): 8 days multiple administration
[2] = Trial B: pharmacokinetics following single and repeated doses in healthy young male subjects; format: in vivo, humans; conditions: for AUC(0-t) / half-life / Cmax / Tmax: male, human, oral; for AUC(0-t): read-out: Mean AUC0-24h (%CV); for half-life: read-out: Mean apparent t½ (%CV) (converted); for Cmax: read-out: Mean Cmax (%CV)
Procedure: The study integrated the results of three double-blind, randomized, placebo-controlled trials. To measure the pharmacokinetics of eslicarbazepine acetate following single doses, oral single doses of eslicarbazepine acetate ranging from 20 mg to 2400 mg were administered to healthy young male subjects (6 subjects per dose). The pharmacokinetics of eslicarbazepine acetate following repeated doses were measured by administering repeated oral doses ranging from 400 mg to 2400 mg of eslicarbazepine acetate to healthy young male subjects (6 subjects per dose) over a period of 8 days. Analytical test methods and experimental procedures were similar to those described for Trial A above.

[3] = multiple oral dose of 900 mg eslicarbazepine acetate once-daily, last dose, arithmetic mean
[4] = multiple oral dose of 900 mg eslicarbazepine acetate twice-daily (as titled), last dose, arithmetic mean
[5] = multiple oral dose of 900 mg eslicarbazepine acetate twice-daily (as titled), last dose, arithmetic mean, listed as Eslicarbazepine
[6] = in vivo, 50 mg, single dose 50 mg eslicarbazepine acetate, n=6
[7] = in vivo, 100 mg, single dose 100 mg eslicarbazepine acetate, n=6
[8] = in vivo, 200 mg, single dose 200 mg eslicarbazepine acetate, n=6
[9] = in vivo, 400 mg, last dose of 8-day repeated 400 mg o.d. eslicarbazepine acetate, n=6
[10] = in vivo, 400 mg, single dose 400 mg eslicarbazepine acetate, n=6
[11] = in vivo, 600 mg, single dose 600 mg eslicarbazepine acetate, n=6
[12] = in vivo, 800 mg, last dose of 8-day repeated 800 mg o.d. eslicarbazepine acetate, n=6
[13] = in vivo, 900 mg, single dose 900 mg eslicarbazepine acetate, n=6
[14] = in vivo, 1200 mg, last dose of 8-day repeated 1200 mg o.d. eslicarbazepine acetate, n=6
[15] = in vivo, 1200 mg, single dose 1200 mg eslicarbazepine acetate, n=6
[16] = in vivo, 1800 mg, last dose of 8-day repeated 1800 mg o.d. eslicarbazepine acetate, n=6
[17] = in vivo, 2400 mg, last dose of 8-day repeated 2400 mg o.d. eslicarbazepine acetate, n=6
[18] = plasma, 20 mg, single dose 20 mg eslicarbazepine acetate, n=6
[19] = plasma, 1800 mg, single dose 1800 mg eslicarbazepine acetate, n=6
[20] = plasma, 2400 mg, single dose 2400 mg eslicarbazepine acetate, n=6

NC(=O)N1c2ccccc2C[C@H](O)c2ccccc21 [eslicarbazepine]
AUC(0-inf) (clinical): 389 µg·h/mL | AUC(0-t) (clinical): 382 µg·h/mL | Cmax (clinical): 22200 ng/mL | Tmax (clinical): 2.45 h | half-life (clinical): 547 min | total exposure in the once-daily group higher than in the twice-daily group ([1]; healthy volunteers, 900 mg daily): at least 26% | Tmax ([1]; multiple oral dose of 900 mg eslicarbazepine acetate once-daily, last dose): 2.45 h | AUC(0-t) [1, 3]: 381601 ng·h/mL | Cmax [1, 3]: 22210 ng/mL | AUC0-τ ([1]; multiple oral dose of 900 mg eslicarbazepine acetate once-daily, last dose, dosing interval 24 hours): 294.019 µg·h/mL | Tmax ([1]; multiple oral dose of 900 mg eslicarbazepine acetate twice-daily (as titled), last dose): 2.09 h | AUC0-∞ [1, 4]: 289.792 µg·h/mL | AUC(0-t) [1, 4]: 283,014 ng·h/mL | Cmax [1, 4]: 16,667 ng/mL | t1/2 [1, 4]: 9.17 h | AUC(0-t) [1, 5]: 283014 ng·h/mL | Cmax [1, 5]: 16667 ng/mL | AUC0-τ ([1]; multiple oral dose of 900 mg eslicarbazepine acetate twice-daily (as titled), last dose, dosing interval 12 hours): 142.08 µg·h/mL | share of total systemic drug exposure (as assessed by AUC0-24) ([1]; once-daily subjects): approximately 95% | share of total systemic drug exposure (as assessed by AUC0-24) ([1]; twice-daily subjects): ~96% | mean AUC0-24h ([2]; 400 mg once-daily doses of eslicarbazepine acetate): 126 µg·h/mL | mean AUC0-24h ([2]; 2400 mg once-daily doses of eslicarbazepine acetate): 906 µg·h/mL | Median tmax (range) ([2]; last dose of 8-day repeated 400 mg o.d. eslicarbazepine acetate, n=6): 3 (0.5-7) h | Median tmax (range) ([2]; last dose of 8-day repeated 800 mg o.d. eslicarbazepine acetate, n=6): 3.5 (1-7) h | Median tmax (range) ([2]; last dose of 8-day repeated 1200 mg o.d. eslicarbazepine acetate, n=6): 3 (0.5-6) h | Median tmax (range) ([2]; last dose of 8-day repeated 1800 mg o.d. eslicarbazepine acetate, n=6): 2 (0.5-4) h | Median tmax (range) ([2]; last dose of 8-day repeated 2400 mg o.d. eslicarbazepine acetate, n=6): 2 (1.5-8) h | mean Cmax ([2]; last dose, repeated once daily 400 mg doses of eslicarbazepine acetate): 8,800 ng/ML | mean Cmax ([2]; last dose, repeated once daily 2400 mg doses of eslicarbazepine acetate): 56,500 ng/ML | AUC(0-t) [2, 6]: 6.7 µg·h/mL | half-life [2, 6]: 486 min | AUC(0-t) [2, 7]: 16.4 µg·h/mL | Cmax [2, 7]: 1500 ng/mL | half-life [2, 7]: 558 min | AUC(0-t) [2, 8]: 30.5 µg·h/mL | Cmax [2, 8]: 2900 ng/mL | half-life [2, 8]: 504 min | AUC(0-t) [2, 9]: 126 µg·h/mL | Cmax [2, 9]: 8800 ng/mL | half-life [2, 9]: 570 min | AUC(0-t) [2, 10]: 81.5 µg·h/mL | Cmax [2, 10]: 5200 ng/mL | half-life [2, 10]: 702 min | AUC(0-t) [2, 11]: 120 µg·h/mL | Cmax [2, 11]: 8500 ng/mL | half-life [2, 11]: 738 min | AUC(0-t) [2, 12]: 268 µg·h/mL | Cmax [2, 12]: 18700 ng/mL | half-life [2, 12]: 738 min | AUC(0-t) [2, 13]: 210 µg·h/mL | Cmax [2, 13]: 15000 ng/mL | half-life [2, 13]: 978 min | AUC(0-t) [2, 14]: 423 µg·h/mL | Cmax [2, 14]: 25500 ng/mL | half-life [2, 14]: 786 min | AUC(0-t) [2, 15]: 286 µg·h/mL | Cmax [2, 15]: 18600 ng/mL | half-life [2, 15]: 990 min | AUC(0-t) [2, 16]: 740 µg·h/mL | Cmax [2, 16]: 47700 ng/mL | half-life [2, 16]: 678 min | AUC(0-t) [2, 17]: 906 µg·h/mL | Cmax [2, 17]: 56500 ng/mL | half-life [2, 17]: 624 min | Tmax ([2]; in vivo, single dose 50 mg eslicarbazepine acetate, n=6, read-out: Median tmax (range)): 0.8 h | Tmax ([2]; in vivo, single dose 100 mg eslicarbazepine acetate, n=6, read-out: Median tmax (range)): 1.5 h | Tmax ([2]; in vivo, single dose 200 mg eslicarbazepine acetate, n=6, read-out: Median tmax (range)): 1.5 h | Tmax ([2]; in vivo, single dose 400 mg eslicarbazepine acetate, n=6, read-out: Median tmax (range)): 4 h | Tmax ([2]; in vivo, single dose 600 mg eslicarbazepine acetate, n=6, read-out: Median tmax (range)): 4 h | Tmax ([2]; in vivo, single dose 900 mg eslicarbazepine acetate, n=6, read-out: Median tmax (range)): 2.3 h | Tmax ([2]; in vivo, single dose 1200 mg eslicarbazepine acetate, n=6, read-out: Median tmax (range)): 4 h | AUC(0-t) [2, 18]: 2.4 µg·h/mL | Cmax [2, 18]: 300 ng/mL | half-life [2, 18]: 546 min | Cmax ([2]; plasma, 50 mg, single dose 50 mg eslicarbazepine acetate, n=6): 900 ng/mL | AUC(0-t) [2, 19]: 508 µg·h/mL | Cmax [2, 19]: 34600 ng/mL | half-life [2, 19]: 708 min | AUC(0-t) [2, 20]: 0.446 µg·h/mL | Cmax [2, 20]: 35900 ng/mL | half-life [2, 20]: 666 min | Tmax ([2]; plasma, last dose, repeated once daily, all dosages, read-out: median tmax): 2 to 3.5 h | Tmax ([2]; plasma, single dose 20 mg eslicarbazepine acetate, n=6, read-out: Median tmax (range)): 0.8 h | Tmax ([2]; plasma, single dose 1800 mg eslicarbazepine acetate, n=6, read-out: Median tmax (range)): 3.5 h | Tmax ([2]; plasma, single dose 2400 mg eslicarbazepine acetate, n=6, read-out: Median tmax (range)): 3 h
